PubChem BioAssay (NCI)
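Following 48 hours of exposure in 96-well plates, responses at five concentrations were used to interpolate endpoints linearly. TGI marks complete inhibition of growth.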

Legend:
Assay in all cases: DTP human tumour cell line panel, 48 h
DLD-1 colon = test system: DLD-1 colon
DMS 114 small cell lung = test system: DMS 114 small cell lung
DMS 273 small cell lung = test system: DMS 273 small cell lung
LXFL 529 NSCLC = test system: LXFL 529 NSCLC
KM20L2 colon = test system: KM20L2 colon
XF 498 CNS = test system: XF 498 CNS
HOP-18 NSCLC = test system: HOP-18 NSCLC
RXF-631 renal = test system: RXF-631 renal
SNB-78 CNS = test system: SNB-78 CNS

Measured: TGI

O=C(N[C@H](CO)[C@H](O)c1ccc([N+](=O)[O-])cc1)C(Cl)Cl
> 100 µM: DLD-1 colon | DMS 114 small cell lung | DMS 273 small cell lung | LXFL 529 NSCLC | KM20L2 colon

O=C(Nc1ccc(C(F)(F)F)cc1[N+](=O)[O-])C(=O)Nn1c(=S)[nH]c2ccccc2c1=O
> 100 µM: DLD-1 colon | DMS 114 small cell lung | DMS 273 small cell lung | XF 498 CNS | HOP-18 NSCLC | KM20L2 colon | RXF-631 renal | SNB-78 CNS
